“And” between values parts separate entries of the source, which are not always exact repeats. Identical values can stand only once. “Also recorded” adds a separate entry of the source.
Columns and labels:
[1] = biological target: T1, Cytosol Androgen Receptor of the Castrate Adult Rat Ventral Prostate (Rattus norvegicus, UniProt P15207); assay: Relative binding affinity for androgen receptor (competition with 3H-dihydrotestosterone); design: species or system rat (Charles River CD)
T1 construct: Several ventral prostate glands pooled for each assay; tissue Charles River (animals, strain CD); host or cells: ventral prostate cytosol of castrated adult male rats
T1 sequence (P15207 1-902): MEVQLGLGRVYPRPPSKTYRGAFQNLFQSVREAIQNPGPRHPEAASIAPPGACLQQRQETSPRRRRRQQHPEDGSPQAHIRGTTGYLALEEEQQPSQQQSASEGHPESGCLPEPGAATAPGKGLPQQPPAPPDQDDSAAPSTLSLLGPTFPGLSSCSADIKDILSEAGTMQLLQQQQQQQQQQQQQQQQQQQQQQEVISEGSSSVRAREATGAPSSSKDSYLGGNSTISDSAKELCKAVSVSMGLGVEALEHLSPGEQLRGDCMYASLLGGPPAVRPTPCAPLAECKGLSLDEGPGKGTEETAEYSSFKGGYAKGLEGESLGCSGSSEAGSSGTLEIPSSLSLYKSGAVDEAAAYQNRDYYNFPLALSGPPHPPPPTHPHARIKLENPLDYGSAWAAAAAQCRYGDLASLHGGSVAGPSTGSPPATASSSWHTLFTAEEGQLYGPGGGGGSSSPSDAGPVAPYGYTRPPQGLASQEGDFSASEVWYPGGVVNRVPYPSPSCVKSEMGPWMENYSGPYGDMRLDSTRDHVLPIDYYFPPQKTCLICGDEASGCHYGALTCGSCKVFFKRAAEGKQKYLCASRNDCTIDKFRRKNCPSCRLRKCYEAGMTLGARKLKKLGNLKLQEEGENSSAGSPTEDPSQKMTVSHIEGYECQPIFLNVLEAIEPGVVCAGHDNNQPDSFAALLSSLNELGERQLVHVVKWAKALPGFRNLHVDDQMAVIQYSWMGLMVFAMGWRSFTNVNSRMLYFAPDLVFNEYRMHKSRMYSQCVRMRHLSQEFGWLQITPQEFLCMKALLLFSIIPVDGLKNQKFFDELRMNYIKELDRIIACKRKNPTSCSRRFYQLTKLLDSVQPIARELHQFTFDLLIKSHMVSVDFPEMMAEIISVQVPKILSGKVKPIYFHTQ
Protocol: The specific conditions, reagents, etc. used to derive the data from Table 2 are as follows:
Animal Species. Adult male rat (Charles River CD).
Pretreatment. Castration 17-24 hour prior to sacrifice.
Tissue. Ventral prostate. Amount of tissue: 0.4 g/rat. Several ventral prostate glands pooled for each assay.
Buffer. 0.05M Tris HCl, 0.05M Trisbase; 1 mM EDTA; 0.15 mM Dithiothreitol.
Homogenization. Three five-second bursts with 30 second cooling periods between bursts using Brinkman Polytron Pt. 10 (3.5 setting).
Temperature. 0°-4° C. all steps.
Centrifugation. 45,000 rpm for 1 hr, 50 Ti rotor, Beckman L8-80 ultracentrifuge.
Radiolabel. 1,2-^3 H-Dihydrotesterone-25,00 cpm/0.1 ml.
Amounts of Addition. 0.1 ml cytosol, 0.1 ml ^3 H-dihydrotestosterone, 0.1 ml test compound, 0.3 ml buffer.
Incubation. 16-18 hours at 0°-4° C.
Concentrations. 1×10^-10 M to 1×10^-5 (7 concentrations).
Method. Charcoal adsorption method used to remove unbound radioactivity. Five-tenths ml dextran-coated charcoal (0.5% Norit A and 0.05% dextran T-70) added to all except total radioactivity tubes (0.5 ml buffer added), tubes vortexed […], allowed to sit 10 min and centrifuged 10 min at 2000 rpm in Beckman TJ-6 centrifuge at 0°-4° C.

[2] = system: uterine endometrium of estrone-primed immature rabbits; assay: Clauberg assay (progestational activity, McPhail); assay type: in vivo, rabbit (New Zealand White); conditions: for McPhail Index (0-4) (X ± S.D.): 0 none, 4 maximal

## C#C[C@]1(C(C)=O)CC[C@H]2[C@@H]3CCC4=CC(=O)CC[C@]4(C)[C@H]3CC[C@@]21C [17α-Ethynylprogesterone, 17α-ethynylprogesterone]
[1]; 16-18 hours at 0°-4° C., 5α-dihydrotestosterone = 100
  RBA: 0.09%
[1]; male rat androgenic receptors
  androgen receptor binding affinity / androgenicity, in words: extremely low binding affinity for male rat androgenic receptors
[2]; compound given orally, progesterone sc
  progestational potency relative to subcutaneous progesterone, in words: progestational activity equivalent to subcutaneous progesterone
[2]; compound given sc
  progestational potency relative to progesterone (sc): 13 times
[2]; oral, 10 μg/rabbit daily
  Uterine Weight (X ± S.D.): 0.94 ± 0.09 g
  McPhail Index (0-4) (X ± S.D.): 0.08 ± 0.11
[2]; oral, 20 μg/rabbit daily
  Uterine Weight (X ± S.D.): 0.98 ± 0.18 g
  McPhail Index (0-4) (X ± S.D.): 0.04 ± 0.06
[2]; oral, 50 μg/rabbit daily
  Uterine Weight (X ± S.D.): 0.86 ± 0.02 g
  McPhail Index (0-4) (X ± S.D.): 0.00 ± 0.00
[2]; oral, 100 μg/rabbit daily
  Uterine Weight (X ± S.D.): 1.79 ± 0.63 g and 1.13 ± 0.24 g
[2]; oral, 100 μg/rabbit/day
  progestational response, in words: inactive; also recorded: near the oral threshold dose
[2]; oral, 200 μg/rabbit daily
  Uterine Weight (X ± S.D.): 1.67 ± 0.33 g
  McPhail Index (0-4) (X ± S.D.): 1.40 ± 1.50
[2]; oral, 400 μg/rabbit daily
  Uterine Weight (X ± S.D.): 1.70 ± 0.50 g
  McPhail Index (0-4) (X ± S.D.): 1.80 ± 1.70
[2]; oral, 200 and 400 μg/rabbit/day
  progestational response, in words: partial progestational responses
[2]; sc, 2.5 μg/rabbit daily
  Uterine Weight (X ± S.D.): 0.90 ± 0.06 g
  McPhail Index (0-4) (X ± S.D.): 0.17 ± 0.23
[2]; sc, 2.5 μg/rabbit/day
  progestational response, in words: inactive
[2]; sc, 5 μg/rabbit daily
  Uterine Weight (X ± S.D.): 1.63 ± 0.45 g
  McPhail Index (0-4) (X ± S.D.): 1.50 ± 0.54
[2]; sc, 5 μg/rabbit/day
  progestational response, in words: partial progestational response
[2]; sc, 10 μg/rabbit daily
  Uterine Weight (X ± S.D.): 3.23 ± 0.83 g
  McPhail Index (0-4) (X ± S.D.): 3.83 ± 0.12
[2]; sc, 20 μg/rabbit daily
  Uterine Weight (X ± S.D.): 4.41 ± 0.33 g
  McPhail Index (0-4) (X ± S.D.): 4.00 ± 0.00
[2]; sc, 50 μg/rabbit daily
  Uterine Weight (X ± S.D.): 5.54 ± 0.18 g
  McPhail Index (0-4) (X ± S.D.): 4.0 ± 0.00
[2]; sc, 100 μg/rabbit daily
  Uterine Weight (X ± S.D.): 4.19 ± 0.22 g
  McPhail Index (0-4) (X ± S.D.): 4.0 ± 0.00
[2]; sc, 200 μg/rabbit daily
  Uterine Weight (X ± S.D.): 4.99 ± 0.89 g
  McPhail Index (0-4) (X ± S.D.): 4.0 ± 0.00
[2]; sc, 400 μg/rabbit daily
  Uterine Weight (X ± S.D.): 5.90 ± 1.75 g
  McPhail Index (0-4) (X ± S.D.): 4.0 ± 0.00
[2]; sc, 10 and 20 μg/rabbit/day
  progestational response, in words: maximal progestational responses
[2]; sc, 50, 100, 200 and 400 μg/rabbit/day
  progestational response, in words: full progestational responses

From US4512986A, “Progrestationally active steroids” (priority 1983, dated 1985)
